The results in this text go back to PubChem BioAssay AID179 (DTP/NCI, 2004).

Calls of active or inactive are those of the source.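 How the source made its calls: active means compounds giving half or more protection of infected cells from virus-caused growth loss, again on retest; inactive means the rest.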 Bounds are passed on as bounds.

In this experiment the test system is CEM cells HIV-1 protection, formazan growth assay. Description: NCI AIDS Antiviral Assay. The note with it: for IC50: measured here: growth of uninfected CEM cells. An outline of the steps: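 Protection of CEM cells against HIV-1 was scored from cell growth (soluble formazan) across five concentrations, with parallel uninfected cells. Lack of protection may reflect toxicity.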

By EC50 is commonly meant the concentration needed to bring the measured effect to its halfway point. For orientation: IC50 means the concentration that gives 50% inhibition. With `CC(=O)NNC(=O)c1ccccc1O`, the EC50 was above 200 µM and the IC50 is 29.5 µM.
The corresponding values for `Cc1cc(=O)n2nc(CSc3nnc(Sc4cc(O)ccc4O)s3)sc2n1` are above 200 µM and 28.8 µM.
The corresponding values for `Cc1c(C#N)c2nc(C(=O)c3ccc(Br)cc3)cc(-c3ccc(Br)cc3)n2c1C` are above 50.1 µM and above 50.1 µM.
The corresponding values for `O=C(O)C1OC12CCCCC2` (stereo unspecified) are above 200 µM and above 200 µM.
For `Cc1cccc(N2C(=O)/C(=C/c3ccc(N(CCC#N)CCC#N)cc3C)N=C2c2cc([N+](=O)[O-])ccc2Cl)c1`, the result was inactive.
Regarding `O=NC1C2C=CC(C2)C1Cl` (stereo unspecified), the EC50 was above 200 µM and the IC50 was above 200 µM.
In the case of `O=c1[nH][nH]c(=O)n1CCCCCCn1c(=O)[nH][nH]c1=O`, the EC50 is above 200 µM and the IC50 was above 200 µM.
Consider `COc1ccc2c(c1)CC[C@@H]1[C@@H]2CC[C@]2(C)/C(=N/OCCN3CCCCC3)CC[C@@H]12`, for which the EC50 is above 20 µM and the IC50 worked out at 3.16 µM.
Consider `O=C1NC2OC(C(O)CO)C(O)C2O1` (stereo unspecified), for which the EC50 was above 200 µM and the IC50 is above 200 µM.
As for `COc1ccc2nc3ccc(OC)cc3c(SCc3ccc([N+](=O)[O-])cc3)c2c1`, the EC50 is above 200 µM and the half-inhibitory concentration (IC50) was above 200 µM.
With `CC(C)Oc1c(N(Cc2ccccc2)c2ccccc2C2SCCCS2)c(=O)c1=O`, the EC50 is above 200 µM and the IC50 amounted to 1.17 µM.
Taken in the same sequence, the figures for `COc1nc2ncc([C@@H](OC(C)=O)[C@@H](COC(C)=O)OC(C)=O)nc2c(=O)[nH]1` were above 200 µM and above 200 µM.
The corresponding values for `N#Cc1snc2sc(=O)sc12` are above 112 µM and 8.71 µM.
The corresponding values for `Cc1cc([N+](=O)[O-])ccc1Sc1c2ccccc2nc2cc(Cl)ccc12` are above 19.1 µM and above 19.1 µM.
For `C=CCNC(=O)NC(=O)CSC1=NNC2(C(=O)N1)c1ccccc1-c1ccccc12`, the EC50 is above 200 µM and the IC50 turned out to be 29.5 µM.
As to `CCO[C@]12C[C@H](OC)[C@@]3(O)CC(C1[C@H]3OCc1ccccc1)C13C4C2[C@H](OC)C1[C@](COC)(CN4CC)[C@H](O)C[C@@H]3OC` (stereo partly specified), the EC50 was 17 µM and the IC50 came out at 117 µM.
`CN(C)CCCNC(=O)c1cc(NC(=O)c2cc(NC(=O)c3cc(NC(=O)c4cccc(C(=O)Nc5cc(C(=O)Nc6cc(C(=O)Nc7cc(C(=O)NCCCN(C)C)n(C)c7)n(C)c6)n(C)c5)c4)cn3C)cn2C)cn1C`: the EC50 is above 100 µM and the IC50 was above 100 µM.
For the molecule `CCCc1cc(=O)oc2c3c(c4c(c12)OC(C)(C)C=C4)O[C@@H](C)[C@H](C)[C@H]3O`, the EC50 was above 51.3 µM and the IC50 turned out to be 17 µM.
For the molecule `c1cc(-c2ncc3ccncc3n2)ccn1`, the EC50 was above 64.6 µM and the concentration for half-maximal inhibition (IC50) is above 64.6 µM.
In the case of `Cc1nc2ccccc2c(=O)n1NC(=S)Nc1cccc(Cl)c1`, the EC50 is above 20.9 µM and the IC50 was above 20.9 µM.
For `Nc1nc2ccccc2nc1N`, the EC50 was above 200 µM and the IC50 is above 200 µM.
As for `COC(=O)c1ccc(CO/N=C(\c2ccccc2)c2ccncc2)cc1`, the EC50 was above 200 µM and the IC50 was determined as 66.1 µM.
Taken in the same sequence, the figures for `CCCCCCCCCCN(CCCCCCCCCC)CC(=O)Nc1ccc(S(=O)(=O)c2ccc(NC(=O)CN(CCCCCCCCCC)CCCCCCCCCC)cc2)cc1` were above 50.1 µM and 3.02 µM.
The corresponding values for `CC(=O)CC(=O)N1CCSC1=S` are 126 µM and above 200 µM.
The corresponding values for `COC(=O)/C(=N\N)C(C(=O)C(=O)Nc1cccc([N+](=O)[O-])c1)c1nc2ccc(C(=O)c3ccccc3)cc2[nH]c1=O` (stereo unspecified) are above 64.6 µM and above 64.6 µM.
As for `CSc1nc2c(=O)oc(-c3ccc([N+](=O)[O-])cc3)nc2s1`, the EC50 was above 151 µM and the IC50 turned out to be 5.37 µM.
Take `COC(=O)/N=[N+](\[O-])C(c1ccc(OC)cc1)C1CCCCC1` (stereo unspecified): the EC50 was above 200 µM and the IC50 amounted to 5.62 µM.
In the case of `O=[N+]([O-])[O-].O=[N+]([O-])[O-].[Au].[Au].c1ccc([P-]c2ccccc2)cc1.c1ccc([P-]c2ccccc2)cc1`, the EC50 is above 4.27 µM and the 50% inhibitory concentration (IC50) was above 4.27 µM.
Take `CCc1c(Cc2ccccc2)n(COCCO[Si](C)(C)C(C)(C)C)c(=O)[nH]c1=O`: the EC50 was above 34.7 µM and the IC50 was found to be 12.6 µM.
The corresponding values for `O=C(c1ccccc1)N1OC2C=CC1CC2` (stereo unspecified) are above 1150 µM and above 1150 µM.
In the case of `OC(c1ccc(-c2ccccc2)cc1)C(F)(F)c1nc2ccccc2o1` (stereo unspecified), the EC50 was above 200 µM and the IC50 came out at 34.7 µM.
The corresponding values for `CC1(C)SC2c3ccccc3C(=O)N2C1C(=O)O` (stereo unspecified) are above 955 µM and above 955 µM.
Take `COc1cc2c(c(OC)c1OC)C(=O)[C@H]1OC(=O)N[C@@H]21`: the EC50 was above 200 µM and the IC50 was above 200 µM.
With `O=C1C=CC(=O)c2c1ccc1c3ccccc3n(CCCCCCCCCCCCn3c4ccccc4c4ccc5c(c43)C(=O)C=CC5=O)c21`, the EC50 is above 100 µM and the IC50 was 72.4 µM.
Taken in the same sequence, the figures for `CCC[CH2][Sn]([CH2]CCC)([O]C(=O)c1cccc(F)c1)[O]C(=O)c1cccc(F)c1` were above 10.2 µM and 6.61 µM.
Taken in the same sequence, the figures for `COc1cc(Br)c2nsnc2c1` were above 29.5 µM and above 29.5 µM.
For `N#Cc1sc2c(c1OC(=O)c1ccc(Cl)cc1Cl)c(=O)n(-c1ccccc1)c(=S)n2-c1ccccc1`, the EC50 was above 200 µM and the IC50 turned out to be 1.23 µM.
In the case of `CCOC(=O)C1CCC(=O)N1C(=O)c1ccccc1` (stereo unspecified), the EC50 is above 200 µM and the IC50 was above 200 µM.
As to `CCOP(=O)(OCC)C(N)Cc1ccc(OC)c(OC)c1` (stereo unspecified), the EC50 was above 200 µM and the IC50 was above 200 µM.
With `CCOP(=O)(OCC)C(c1ccccc1)N(C(=O)NC(F)(F)F)c1ccc(C)cc1` (stereo unspecified), the EC50 was above 200 µM and the IC50 was above 200 µM.
With `NNC(=O)CCCCCCCC(=O)O`, the EC50 was above 200 µM and the IC50 was above 200 µM.
As to `CC(=O)OCc1cncn1S(=O)(=O)c1ccc(C)cc1`, the EC50 was above 200 µM and the IC50 worked out at 22.9 µM.
The corresponding values for `COc1ccc(-c2oc3c(CC(=O)O)cccc3c(=O)c2OC)cc1` are above 200 µM and 112 µM.
With `CCO[C@@]12CCC3CC4CC[C@@](OCC)(O1)C4C32` (stereo partly specified), the EC50 is above 200 µM and the half-inhibitory concentration (IC50) is above 200 µM.
With `CC1C2=C(C(=O)N1Cc1ccccc1)C(C1OC(COC(=O)c3ccccc3)C(OC(=O)c3ccccc3)C1OC(=O)c1ccccc1)C(=O)N(C)C2=O` (stereo unspecified), the EC50 was above 7.24 µM and the IC50 is above 7.24 µM.
For `O=C(/C=C(\O)c1ccccc1)C(=O)NNc1ccc([N+](=O)[O-])cc1[N+](=O)[O-]`, the EC50 is above 200 µM and the IC50 was determined as 60.3 µM.
The corresponding values for `COC(=O)N/N=C(\C)C(CN1CCCCC1)C(C1=C(O)c2ccccc2OC1)c1ccccc1` (stereo unspecified) are above 72.4 µM and 42.7 µM.
The corresponding values for `O=C(N/N=C\c1ccc[nH]1)c1ccncc1` are above 200 µM and above 200 µM.
Consider `CC(Oc1cc2oc(=O)cc(-c3ccccc3)c2cc1Cl)C(=O)O` (stereo unspecified), for which the result was inactive.
